{"source": "patent US20200354426A1", "about": "(MEDIMMUNE LIMITED, priority 2016, published 2020)", "key": {"[1]": {"experiment": "Stability testing of peptides in plasma", "type": "in vitro ADME, human", "procedure": "The stability in plasma of the peptideS […], […], […] and […] was determined as follows. […] The spiked plasma samples were gently mixed and allowed to equilibrate for about 5 minutes before start of experiment. The plasma samples were incubated for 48 hours in a GalaxyR CO2 incubator at 37° C. […] The samples were stored at -70° C. until analysis. Plasma samples were assayed as follows. […] After mixing and centrifugation, 100 μl the supernatant was transferred to a new plate and 1 μl was injected onto an analytical column. The analysis was performed using a μLC-system ([…]) coupled to a medium high resolution mass spectrometer (Perkin Elmer PenTOF) with positive electrospray ionisation. […] Flow: 0.1 ml/min using a slow reversed phase gradient. […] Cleavage products arise from the action of the protease DPP IV in plasma. Both the degradation of the peptides and formation of peptide products were reported in percentage of the initial peptide concentration. Peaks were integrated and % remaining peptide was calculated: […] Levels of deamidation and DPP IV cleavage were low for […] and […]."}, "[2]": {"molecular_target": "Human GLP1R (Homo sapiens, UniProt P43220)", "sequence (P43220 24-463)": "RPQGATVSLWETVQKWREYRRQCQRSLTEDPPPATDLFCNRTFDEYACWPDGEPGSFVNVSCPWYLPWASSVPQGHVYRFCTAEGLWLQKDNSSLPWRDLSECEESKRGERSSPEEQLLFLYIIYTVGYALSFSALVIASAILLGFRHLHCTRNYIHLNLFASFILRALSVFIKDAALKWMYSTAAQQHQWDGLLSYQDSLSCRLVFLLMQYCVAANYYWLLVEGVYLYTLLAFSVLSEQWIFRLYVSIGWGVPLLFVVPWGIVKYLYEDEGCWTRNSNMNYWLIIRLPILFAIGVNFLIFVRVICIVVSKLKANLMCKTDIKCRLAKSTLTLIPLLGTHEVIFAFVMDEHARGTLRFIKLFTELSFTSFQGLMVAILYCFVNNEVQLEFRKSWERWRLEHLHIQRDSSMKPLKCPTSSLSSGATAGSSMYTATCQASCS", "experiment": "cAMP activity assay in assay medium (assay 1)", "type": "cell-based", "design": "expressed in transfected cells", "conditions": "assay medium", "excerpt": "Biological Activity of Peptides in Cell-Based cAMP Activity Assay (Assay 1):\nAll sample dilutions were made in duplicate."}, "[3]": {"experiment": "Peptide solubility in buffers (A280)", "type": "physicochemical", "excerpt": "G730 was soluble in a pH range of 4.5 to 8.0."}, "[4]": {"molecular_target": "T1, Rat GLP1R (Rattus norvegicus, UniProt P32301)", "T1 construct": "expressed in transfected cells", "T1 sequence (P32301 22-463)": "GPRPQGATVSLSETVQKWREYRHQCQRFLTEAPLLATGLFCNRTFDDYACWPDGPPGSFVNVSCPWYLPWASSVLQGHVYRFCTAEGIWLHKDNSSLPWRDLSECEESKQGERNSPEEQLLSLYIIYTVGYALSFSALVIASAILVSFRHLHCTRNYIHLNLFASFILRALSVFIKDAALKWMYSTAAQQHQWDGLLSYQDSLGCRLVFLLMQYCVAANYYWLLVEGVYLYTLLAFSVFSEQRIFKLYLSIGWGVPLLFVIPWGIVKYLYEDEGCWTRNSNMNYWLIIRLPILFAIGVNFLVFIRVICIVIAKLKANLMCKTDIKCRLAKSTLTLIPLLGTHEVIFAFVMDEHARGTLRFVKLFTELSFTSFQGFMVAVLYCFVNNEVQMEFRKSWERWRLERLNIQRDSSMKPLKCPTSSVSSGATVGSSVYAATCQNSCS", "experiment": "cAMP assay in 3.2% rat serum albumin (assay 2)", "type": "cell-based", "procedure": "Cryopreserved cell stocks were prepared in 1× cell freezing medium-DMSO serum free (Sigma Aldrich) at 2×10^7/vial and stored at −80° C. […] Peptides were serially diluted in DMSO and then diluted 100 fold into DMEM containing serum albumin at stated final concentration. […] Cells were added to the assay plates and incubated for 30 min at room temperature. Following incubation the assay was stopped and cAMP levels measured using the HTRF® dynamic d2 cAMP assay kit available from CisBio Bioassays, as per the manufacture's guidelines. Plates were read on Perkin Elmer ENVISION® fluorescence plate readers. Human and rat serum albumin were purchased from Sigma Aldrich and mouse serum albumin from Equitech Bio Ltd.\nData was transformed to % Delta F as described in manufacturer's guidelines and analysed by 4-parameter logistic fit to determine EC50 values. […] For instance. […] To compare the balance of activities at the GLP1R and GlucR between different peptides and across different conditions, these can be correlated using the calculation below, where the EC50's are related to those of the natural ligands."}, "[5]": {"molecular_target": "T2, Rat GlucR (Rattus norvegicus, UniProt P30082)", "T2 construct": "expressed in transfected cells", "T2 sequence (P30082 27-485)": "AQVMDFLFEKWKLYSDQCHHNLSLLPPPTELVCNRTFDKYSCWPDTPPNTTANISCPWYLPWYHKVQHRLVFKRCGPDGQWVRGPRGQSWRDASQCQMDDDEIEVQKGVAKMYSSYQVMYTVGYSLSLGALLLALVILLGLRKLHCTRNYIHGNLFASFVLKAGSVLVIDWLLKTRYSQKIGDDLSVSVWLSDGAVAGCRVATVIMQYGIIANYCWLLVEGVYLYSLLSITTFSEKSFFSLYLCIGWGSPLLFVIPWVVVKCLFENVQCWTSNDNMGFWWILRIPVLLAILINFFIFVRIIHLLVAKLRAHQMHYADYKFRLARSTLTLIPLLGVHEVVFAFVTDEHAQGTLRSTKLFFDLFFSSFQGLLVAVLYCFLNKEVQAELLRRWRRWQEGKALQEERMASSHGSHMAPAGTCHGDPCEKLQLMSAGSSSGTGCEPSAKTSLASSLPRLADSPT", "experiment": "cAMP assay in 3.2% rat serum albumin (assay 2)", "type": "cell-based", "conditions": "for Rat GlucR/GLP1R Ratio: […] rat serum albumin, relative potencies vs natural ligands"}}, "note": "Like-named read-outs stand apart in the source and are kept apart here. Numbered stars: 1 amine (or outer) side, 2 acyl side, 3 side chain; on linkers, the order of the positions; unused ones are H or OH. Side chains are listed from the residue outwards. Peptide text beside a SMILES is read from it. * marks the point of attachment. γGlu = O=C(O)[C@H](CCC(=O)[*:2])N[*:1]; Palmitoyl = CCCCCCCCCCCCCCCC(=O)*"}
{"molecule": "CCCCCCCCCCCCCCCC(=O)N[C@@H](CCC(=O)NCCCC[C@H](NC(=O)[C@H](CCCCN)NC(=O)[C@H](CO)NC(=O)[C@H](Cc1ccc(O)cc1)NC(=O)[C@H](CC(=O)O)NC(=O)[C@H](CO)NC(=O)[C@@H](NC(=O)[C@H](Cc1ccccc1)NC(=O)[C@@H](NC(=O)CNC(=O)[C@H](CCC(N)=O)NC(=O)[C@H](CO)NC(=O)[C@@H](N)Cc1c[nH]cn1)[C@@H](C)O)[C@@H](C)O)C(=O)N[C@@H](CC(C)C)C(=O)N[C@@H](CC(=O)O)C(=O)N[C@@H](CO)C(=O)N[C@@H](CCC(=O)O)C(=O)N[C@@H](CCCNC(=N)N)C(=O)N[C@@H](C)C(=O)N[C@@H](CCCNC(=N)N)C(=O)N[C@@H](CC(=O)O)C(=O)N[C@@H](Cc1ccccc1)C(=O)N[C@H](C(=O)N[C@@H](C)C(=O)N[C@@H](Cc1c[nH]c2ccccc12)C(=O)N[C@@H](CC(C)C)C(=O)N[C@H](C(=O)N[C@@H](C)C(=O)NCC(=O)NCC(N)=O)C(C)C)C(C)C)C(=O)O", "note": "[Peptide G730] (H-HSQGTFTSDYSKK([γGlu-Palmitoyl])LDSERARDFVAWLVAGG-NH2; N-terminus assumed)", "values": [{"measurement": "% +1 prod", "setting": "[1]", "result": "<1", "unit": "%"}, {"measurement": "% DPP cleaved product/+1 DPP cleaved product", "setting": "[1]", "result": "<1", "unit": "%"}, {"measurement": "remaining at 24 h, 2 μmol/L", "setting": "[1]; human, plasma", "result": 100, "unit": "%"}, {"measurement": "EC50", "setting": "[2]; Table 2, C-terminal amide peptides, read-out: Human GLP1R EC50", "result": 18, "unit": "pM"}, {"measurement": "EC50", "setting": "[2]; Table 4, read-out: hGLP1R EC50", "result": 39.5, "unit": "pM"}, {"measurement": "Conc. (A280), target 1 mg/ml", "setting": "[3]; Glutamate pH 4.5, 100 mM", "result": 830, "unit": "µg/mL"}, {"measurement": "Conc. (A280), target 1 mg/ml", "setting": "[3]; Phosphate pH 6.5, 100 mM", "result": 830, "unit": "µg/mL"}, {"measurement": "Conc. (A280), target 1 mg/ml", "setting": "[3]; Phosphate pH 7.5, 100 mM", "result": 850, "unit": "µg/mL"}, {"measurement": "Conc. (A280), target 1 mg/ml", "setting": "[3]; Phosphate, pH = 6, 100 mM", "result": 140, "unit": "µg/mL"}, {"measurement": "Conc. (A280), target 1 mg/ml", "setting": "[3]; Tris pH 7.5, 100 mM", "result": 830, "unit": "µg/mL"}, {"measurement": "Conc. (A280), target 1 mg/ml", "setting": "[3]; Tris pH 8.0, 100 mM", "result": 1100, "unit": "µg/mL"}, {"measurement": "EC50", "setting": "[4]", "result": 81, "unit": "pM"}, {"measurement": "EC50", "setting": "[5]; 3.2% rat serum albumin", "result": 45100, "unit": "pM"}, {"measurement": "Rat GlucR/GLP1R Ratio", "setting": "[5]", "result": 0.06}]}
{"molecule": "L-Histidyl-L-seryl-L-glutaminylglycyl-L-threonyl-L-phenylalanyl-L-threonyl-L-seryl-L-alpha-aspartyl-(N6-[N-(1-oxohexadecyl)-L-gamma-gutamyl])L-lysy-L-sery-L-alpha-glutamyl-L-tyrosyl-L-leucyl-L-alpha-aspartyl-L-seryl-L-alpha-glutamyl-L-arginyl-L-alanyl-L-arginyl-L-alpha-L-aspartyl-L-phenylalanyl-L-valyl-L-alanyl-L-tryptophyl-L-leucyl-L-alpha-glutamyl-L-alanylglycylglycine [Peptide G933]", "values": [{"measurement": "Rat GlucR/GLP1R Ratio", "setting": "[5]", "result": 0.27}]}
